What all share (type): biochemical
The target in one assay is T1, Acot2 (Mus musculus, UniProt Q9QYR9).
T1 sequence (Q9QYR9 43-453): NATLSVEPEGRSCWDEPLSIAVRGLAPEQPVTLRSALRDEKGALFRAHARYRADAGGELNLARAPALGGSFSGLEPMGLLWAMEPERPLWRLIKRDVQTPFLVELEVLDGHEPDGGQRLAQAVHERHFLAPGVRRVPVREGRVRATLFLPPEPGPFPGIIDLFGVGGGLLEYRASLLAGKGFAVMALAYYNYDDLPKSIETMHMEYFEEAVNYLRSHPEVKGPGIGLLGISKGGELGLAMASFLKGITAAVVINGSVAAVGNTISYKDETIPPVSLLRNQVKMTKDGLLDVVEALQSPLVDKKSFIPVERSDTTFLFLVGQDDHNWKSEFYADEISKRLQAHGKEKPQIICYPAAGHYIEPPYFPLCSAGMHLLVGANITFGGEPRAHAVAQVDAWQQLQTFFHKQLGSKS
The experiment in a line: thioesterase activity in liver mitochondria overexpressing Acot2. The conditions noted are these: read-out: % inhibition at 10 mM.

For assay [1], the target named is T2, recombinant mouse Acot13 (Mus musculus, UniProt Q9CQR4).
T2 sequence (Q9CQR4 1-140): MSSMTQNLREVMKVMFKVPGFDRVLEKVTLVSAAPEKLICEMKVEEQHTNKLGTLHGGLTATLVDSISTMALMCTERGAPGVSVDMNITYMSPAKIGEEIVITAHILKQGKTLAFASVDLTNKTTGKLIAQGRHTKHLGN
As to the kind of experiment: thioesterase activity assay. The conditions noted are these: read-out: % inhibition at 10 mM.

In assay [2] the target is T2, recombinant mouse Acot13. The experiment in a line: thioesterase activity assay.

Usually inhibition stands for the relative decrease from the control value, in per cent. Turning to `Nc1ncnc2c1ncn2[C@@H]1O[C@H](COP(=O)(O)OP(=O)(O)O)[C@@H](O)[C@H]1O` [ADP], the inhibition at 10000 µM on Acot2 and at recombinant mouse Acot13 [1] was around 20% each time.
As usually defined, the IC50 is the concentration that gives 50% inhibition. `CC(C)(COP(=O)(O)OP(=O)(O)OC[C@H]1O[C@@H](n2cnc3c(N)ncnc32)[C@H](O)[C@@H]1OP(=O)(O)O)[C@@H](O)C(=O)NCCC(=O)NCCS` [CoA]: the IC50 at recombinant mouse Acot13 [2] was around 35 µM.
Consider `Nc1ncnc2c1ncn2[C@@H]1O[C@H](COP(=O)(O)OP(=O)(O)OP(=O)(O)O)[C@@H](O)[C@H]1O` [ATP], for which the inhibition at 10000 µM at Acot2 and on recombinant mouse Acot13 [1] was around 20% throughout.

Source of the values: paper doi:10.1101/705327v1 (biorxiv, 2019).
